Test results taken from US20230414607A1, “METHODS OF TREATMENT” (BOW RIVER LLC, priority 2017, published 2023).
Where “and” joins values, the source holds several entries; their conditions need not be identical. Equal entries are not always repeated. Where two headings read alike, the source gives them in different places.

Experiments:
CYP3A = test: Example 2: lurasidone pharmacokinetics during and after posaconazole (drug-drug interaction); format: in vivo; conditions: human; for half-life: plasma, oral, read-out: Lurasidone elimination half-life, arithmetic mean ± S.E. (converted)
[1] = cited from earlier work
[2] = Example 1: pharmacokinetic study with posaconazole and lurasidone in obese subjects; format: in vivo, human
Description: Inventors studied 6 obese male and female subjects (ages 18-50, BMI>35) taking Posaconazole oral tablets (300 mg qd) and Lurasidone (20 mg qd). Body weights and BMI measurements for the 6 subjects are provided below in Table 1.
Subjects were dosed with Lurasidone alone on Day 1, then subsequently dosed to steady-state Posaconazole levels, with a loading dose of 300 mg twice a day on Day 2 and 300 mg once a day thereafter over a period of 14 days. Posaconazole administration was then stopped and Lurasidone (20 mg qd) administered 2, 4, and 6 days after administration had ceased (studies days 17, 19, and 21 respectively).

CYP3A4 [3] = molecular target: T1, CYP3A4 (Homo sapiens, UniProt P08684); conditions: for predicted lurasidone AUC levels (reported as GMR) greater than baseline: human
From the text: Blood plasma levels may be described in various ways, such as area under the plasma concentration curve (AUC) and peak plasma concentration (Cmax). Baseline levels and posaconazole interaction levels for CYP3A4 substrate drugs may be compared using the geometric mean ratio (GMR) of AUC and Cmax. […] GMR is the standard industry and regulatory method for assessing the ratio of change of a pharmacokinetic variable (such as AUC) relative to its own baseline value (e.g., in a patient that was not treated with posaconazole). Once the level of substrate drug (AUC or Cmax) during co-administration with posaconazole and a CYP3A4 substrate drug is known, a function can be derived using conventional pharmacological methods to estimate how the AUC or plasma level of the CYP3A4 substrate drug is expected to decay over time after stopping administration of posaconazole. Such a function can be used to provide a plot of the decay GMR of AUC (or Cmax) of the CYP3A4 substrate drug versus time due to its interaction with posaconazole, based on the stated half-life of posaconazole.
The expected DDI decay curve can also be calculated for Cmax GMR by substituting Cmax during co-administration for AUC during co-administration in equation 1. As used herein, “expected levels” and “predicted levels” and the like, refer to the AUC or Cmax GMR values calculated using equation 1.

[4] = cited from earlier work; remark: listed apart in the source
CYP3A4 [5] = molecular target: T1, CYP3A4; conditions: in vivo
From the text: The reduced dose of the CYP3A4 substrate drug may be administered with posaconazole, the day after stopping posaconazole, or two or more days (e.g., as described herein) after stopping posaconazole.
To mitigate this risk, in some embodiments the administration of the CYP3A4 substrate drug is contraindicated not just for co-administration with posaconazole, but the administration is also contraindicated for a period of time (e.g., 2 or more days) after stopping posaconazole beyond the label-prescribed delay of one day (i.e., contraindication for co-administration of the CYP3A4 substrate drug and posaconazole). In some embodiments, the present methods provide for administering the CYP3A4 substrate drug as soon as it is safe to do so, e.g., for time periods exceeding about 1 day, as described herein. […] This accounts for the need to treat the patient with the CYP3A4 substrate drug with no more delay (after stopping posaconazole) than is necessary, so that the risks of leaving such a patient untreated are minimized as much as possible.

[6] = 2 days after stopping posaconazole

T1 sequence (P08684 whole entry): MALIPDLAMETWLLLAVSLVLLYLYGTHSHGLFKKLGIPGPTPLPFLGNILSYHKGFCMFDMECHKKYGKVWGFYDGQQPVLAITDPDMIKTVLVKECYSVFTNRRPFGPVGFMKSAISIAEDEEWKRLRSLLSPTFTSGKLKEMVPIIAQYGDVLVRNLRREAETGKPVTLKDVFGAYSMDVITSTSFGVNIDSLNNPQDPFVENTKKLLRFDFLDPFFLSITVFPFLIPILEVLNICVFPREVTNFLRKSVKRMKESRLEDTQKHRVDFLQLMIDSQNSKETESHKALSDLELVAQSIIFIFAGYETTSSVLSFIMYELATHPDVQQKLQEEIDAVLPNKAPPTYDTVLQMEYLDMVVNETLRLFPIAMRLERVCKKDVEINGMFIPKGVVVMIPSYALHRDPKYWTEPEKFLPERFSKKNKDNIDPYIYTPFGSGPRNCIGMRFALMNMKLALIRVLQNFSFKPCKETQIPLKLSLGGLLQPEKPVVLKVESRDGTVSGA

**Q.** Which “Corrected Cmax, arithmetic mean ± standard error” value (CYP3A; in vivo, 20 mg) does the source give for `O=C1[C@@H]2[C@H]3CC[C@H](C3)[C@@H]2C(=O)N1C[C@@H]1CCCC[C@H]1CN1CCN(c2nsc3ccccc23)CC1` [lurasidone] here?
**A.** Its value is 19.8 ± 4 ng/mL.

**Q.** What about the Cmax (CYP3A; in vivo, 20 mg, Corrected Cmax, arithmetic mean ± standard error) of the same compound?
**A.** The Cmax was 17.1 ± 1.6 ng/mL.

**Q.** What about the half-life (CYP3A; 20 mg, Normal, Day 1 (baseline)) of the same compound?
**A.** Its half-life is 9.4 h.

**Q.** And the half-life (CYP3A; 20 mg, Normal, Day 20 (posaconazole given Days 4-17))?
**A.** Its half-life is 39 ± 3 h.

**Q.** And the half-life (CYP3A; 20 mg, Normal, Day 23 (posaconazole given Days 4-17))?
**A.** Its half-life is 48 ± 5 h.

**Q.** What about the half-life (CYP3A; 20 mg, Normal, Day 26 (posaconazole given Days 4-17)) of the same compound?
**A.** The half-life was 50 ± 7 h.

**Q.** What about the half-life (CYP3A; 20 mg, Normal, Day 30 (posaconazole given Days 4-17)) of the same compound?
**A.** Its half-life is 45 ± 9 h.

**Q.** And the half-life (CYP3A; 20 mg, Obese, Day 1 (baseline))?
**A.** The half-life was 10.9 h.

**Q.** What about the half-life (CYP3A; 20 mg, Obese, Day 20 (posaconazole given Days 4-17)) of the same compound?
**A.** Its half-life is 48 ± 4 h.

**Q.** What about the half-life (CYP3A; 20 mg, Obese, Day 23 (posaconazole given Days 4-17)) of the same compound?
**A.** Its half-life is 52 ± 3 h.

**Q.** And the half-life (CYP3A; 20 mg, Obese, Day 26 (posaconazole given Days 4-17))?
**A.** The half-life was 61 ± 4 h.

**Q.** What about the half-life (CYP3A; 20 mg, Obese, Day 30 (posaconazole given Days 4-17)) of the same compound?
**A.** Its half-life is 71 ± 5 h.

**Q.** What about the half-life (CYP3A; Normal, Day 14 (with posaconazole)) of the same compound?
**A.** The half-life was 37 ± 4 h.

**Q.** And the half-life (CYP3A; Obese, Day 14 (with posaconazole))?
**A.** The half-life was 38 ± 2 h.

**Q.** And the “increase in the AUC of lurasidone associated with somnolence” value ([1]; about 3 fold increase in GMR)?
**A.** The value was “about 300%”.

**Q.** What about the “increase in AUC of lurasidone associated with akathisia” value ([1]; about 4 fold increase in GMR) of the same compound?
**A.** Its value is 400%.

**Q.** What about the “Lurasidone AUC Ratio relative to Day 1” value ([2]; Day 17, 2 days after Posaconazole was stopped, individual obese subjects) of the same compound?
**A.** The value was 2.98 and 1.78.

**Q.** What about the AUC ([2]; both sexes, human, in vivo, 20 mg, Day 17, 2 days after Posaconazole was stopped, individual obese subjects) of the same compound?
**A.** Its AUC is 196 ng·h/mL.

**Q.** What about the “post-Posaconazole treatment mean AUC ratio values for Lurasidone” value ([2]; both, human, in vivo) of the same compound?
**A.** Its value is 3.6-4.3 ×.

**Q.** And the “post-Posaconazole treatment mean AUC ratios of Lurasidone, times higher than the baseline” value ([2]; both, human, in vivo)?
**A.** The value was “about 3 times”.

**Q.** And the “day after stopping posaconazole on which predicted AUC reaches baseline” value (CYP3A4 [3])?
**A.** Its value is roughly 9 days.

**Q.** What about the “predicted lurasidone AUC levels (reported as GMR) greater than baseline” value (CYP3A4 [3]; 1 day after stopping posaconazole) of the same compound?
**A.** Its value is “about 400%”.

**Q.** And the “predicted lurasidone AUC levels (reported as GMR) greater than baseline” value (CYP3A4 [3]; [6])?
**A.** Its value is “about 300%”.

**Q.** And the “normal baseline AUC: mean AUC0-tau” value ([4]; 120 mg lurasidone in the fed state after a 350 kcal meal)?
**A.** The value was “about 743 ng*h/mL”.

**Q.** What about the “normal baseline Cmax: mean Cmax” value ([4]; 120 mg lurasidone in the fed state following a 350 kcal meal) of the same compound?
**A.** The value was “about 160 ng/mL”.

**Q.** And the “actual AUC levels, fold greater than expected” value (CYP3A4 [5]; [6])?
**A.** The value was “about 2 fold”.

**Q.** And the “actual AUC levels, fold greater than expected” value (CYP3A4 [5]; 3 days after stopping posaconazole)?
**A.** Its value is 2-3 fold.

**Q.** What about the “actual AUC levels, fold greater than expected” value (CYP3A4 [5]; 4 days after stopping posaconazole) of the same compound?
**A.** The value was 2.5-3.5 fold.
